Laboratory results from patent US8148391B2 (Cephalon, Inc., priority 2006, dated 2012).
Like-named read-outs stand apart in the source and are kept apart here. Each block holds one molecule with its values, some of them ahead of it.

Experiments:
[1] = biological target: T1, baculovirus-expressed ALK (Homo sapiens, UniProt Q9UM73); assay: ALK Kinase Assay (ELISA-type, time-resolved fluorescence); type: biochemical
T1 construct: host or cells: baculovirus expression system
Procedure, shortened: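 Wells were coated with phospholipase C-γ at 10 μg/mL in Tris-buffered saline. Adding 30 ng/ml enzyme started the reaction, which ran at 37° C for 15 minutes before Eu-N1 PT66 antibody detection. Percent inhibition versus log10 concentration gave IC50 by variable-slope fit.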

[2] = biological target: T2, c-Met (cytoplasmic domain) (Homo sapiens, UniProt P08581); assay: c-Met Kinase Assay (same methods as for ALK, with modifications); type: biochemical
T2 construct: 10 ng/mL c-Met (cytoplasmic domain, Invitrogen Corporation #PV3143); purchased Invitrogen Corporation PV3143
T2 sequence (P08581 956-1390 limits assumed): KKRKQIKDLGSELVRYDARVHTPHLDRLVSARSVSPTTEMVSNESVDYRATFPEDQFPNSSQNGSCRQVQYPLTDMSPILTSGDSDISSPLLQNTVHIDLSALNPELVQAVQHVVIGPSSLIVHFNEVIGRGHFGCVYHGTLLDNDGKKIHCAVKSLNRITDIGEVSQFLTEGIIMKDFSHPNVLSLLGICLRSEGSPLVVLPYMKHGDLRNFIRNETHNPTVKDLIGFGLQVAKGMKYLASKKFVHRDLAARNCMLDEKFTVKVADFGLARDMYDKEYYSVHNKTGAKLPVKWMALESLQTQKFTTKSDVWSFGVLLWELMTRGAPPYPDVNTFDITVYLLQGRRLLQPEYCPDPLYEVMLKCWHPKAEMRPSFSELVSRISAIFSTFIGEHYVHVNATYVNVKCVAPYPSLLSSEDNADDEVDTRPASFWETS
Procedure, shortened: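 IC50 values were fitted by variable-slope sigmoidal regression of percent inhibition against log compound concentration. Phosphorylation was read with Eu-N1 PT66 antibody after a 15 min, 37 °C reaction. The reaction was initiated with 10 ng/mL c-Met cytoplasmic domain on wells coated with 10 μg/mL PLC-γ in TBS.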

[3] = ALK kinase inhibition, 1 μM ATP, read-out: ALK Activity
[4] = c-Met kinase inhibition, 1 μM ATP, read-out: cMet Activity
[5] = ALK kinase inhibition, 1 μM ATP (Km level), read-out: ALK Activity
[6] = c-Met kinase inhibition, 1 μM ATP (Km level), read-out: cMet Activity
[7] = 1 μM ATP (Km level), read-out: ALK Activity (ALK Kinase Inhibition, IC50)
[8] = 1 μM ATP (Km level), read-out: cMet Activity (c-Met Kinase Inhibition, IC50)
[9] = 1 μM ATP (Km level), 30 ng/ml ALK, 37° C., 15 minutes, read-out: ALK Activity (ALK kinase inhibition, IC50 class)
[10] = 1 μM ATP (Km level), 10 ng/mL c-Met, read-out: cMet Activity (c-Met kinase inhibition, IC50 class)

T1 sequence (Q9UM73 19-1620): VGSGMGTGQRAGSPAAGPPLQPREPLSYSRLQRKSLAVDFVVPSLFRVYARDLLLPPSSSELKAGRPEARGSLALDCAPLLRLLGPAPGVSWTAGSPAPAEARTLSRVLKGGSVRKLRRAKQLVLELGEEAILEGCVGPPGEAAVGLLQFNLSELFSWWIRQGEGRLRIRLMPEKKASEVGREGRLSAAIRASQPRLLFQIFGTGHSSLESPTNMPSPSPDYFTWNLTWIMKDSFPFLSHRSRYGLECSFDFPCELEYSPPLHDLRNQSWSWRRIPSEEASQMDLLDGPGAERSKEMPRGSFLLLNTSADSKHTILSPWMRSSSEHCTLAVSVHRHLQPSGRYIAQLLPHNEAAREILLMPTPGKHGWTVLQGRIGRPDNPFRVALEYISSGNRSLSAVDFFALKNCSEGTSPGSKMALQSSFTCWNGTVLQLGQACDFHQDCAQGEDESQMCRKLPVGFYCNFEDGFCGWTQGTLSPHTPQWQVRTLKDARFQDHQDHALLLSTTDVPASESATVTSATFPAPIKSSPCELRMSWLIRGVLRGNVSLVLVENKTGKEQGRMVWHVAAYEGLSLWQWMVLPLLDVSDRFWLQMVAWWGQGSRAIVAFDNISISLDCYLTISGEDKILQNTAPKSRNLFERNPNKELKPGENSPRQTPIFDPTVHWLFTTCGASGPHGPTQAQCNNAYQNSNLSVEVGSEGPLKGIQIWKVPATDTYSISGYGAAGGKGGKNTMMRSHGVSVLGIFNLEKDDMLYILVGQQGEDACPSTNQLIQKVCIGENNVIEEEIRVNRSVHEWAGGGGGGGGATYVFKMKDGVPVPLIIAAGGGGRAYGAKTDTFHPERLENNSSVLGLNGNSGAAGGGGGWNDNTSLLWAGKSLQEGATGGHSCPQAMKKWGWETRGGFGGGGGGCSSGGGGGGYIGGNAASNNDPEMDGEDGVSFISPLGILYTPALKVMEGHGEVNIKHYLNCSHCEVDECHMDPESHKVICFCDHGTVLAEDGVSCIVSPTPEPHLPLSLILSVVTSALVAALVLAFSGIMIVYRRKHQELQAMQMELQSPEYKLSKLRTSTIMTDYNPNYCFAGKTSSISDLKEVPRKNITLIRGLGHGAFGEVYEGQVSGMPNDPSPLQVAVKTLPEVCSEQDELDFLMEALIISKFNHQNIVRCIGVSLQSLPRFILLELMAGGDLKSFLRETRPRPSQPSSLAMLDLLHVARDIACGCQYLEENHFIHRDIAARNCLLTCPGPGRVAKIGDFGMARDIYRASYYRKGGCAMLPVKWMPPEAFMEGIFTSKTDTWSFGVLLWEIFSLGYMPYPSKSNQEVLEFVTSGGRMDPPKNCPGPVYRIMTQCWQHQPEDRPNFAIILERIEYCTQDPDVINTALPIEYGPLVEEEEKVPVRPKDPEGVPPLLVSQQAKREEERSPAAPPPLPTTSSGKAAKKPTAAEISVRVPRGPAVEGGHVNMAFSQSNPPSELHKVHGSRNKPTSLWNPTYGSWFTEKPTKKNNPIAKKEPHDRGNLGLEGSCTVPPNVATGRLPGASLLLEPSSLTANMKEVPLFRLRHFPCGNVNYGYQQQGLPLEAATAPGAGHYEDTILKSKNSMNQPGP

IC50 [1, 3]: 1000 to 10000 nM
IC50 [2, 4]: 100 to 1000 nM
Molecule: CNC(=O)c1scc(C)c1Nc1nc(Nc2ccc3c(c2)NC(=O)CN(C(=O)C(F)(F)F)C3)ncc1Cl [Example 1866, 3-{5-Chloro-2-[2-oxo-4-(2,2,2-trifluoro-acetyl)-2,3,4,5-tetrahydro-1H-benzo[e][1,4]diazepin-8-ylamino]-pyrimidin-4-ylamino}-4-methyl-thiophene-2-carboxylic acid methylamide]

IC50 [1, 3]: < 100 nM
IC50 [2, 4]: 100 to 1000 nM
Molecule: CCN1C(=O)CCC(C)(C)c2ccc(Nc3ncc(Cl)c(Nc4ccccc4OCC#N)n3)cc21 [Example 1580, {2-[5-Chloro-2-(1-ethyl-5,5-dimethyl-2-oxo-2,3,4,5-tetrahydro-1H-benzo[b]azepin-8-ylamino)-pyrimidin-4-ylamino]-phenoxy}-acetonitrile]

IC50 [1, 7]: < 100 nM
IC50 [2, 8]: 1000 to 10000 nM
Molecule: COc1cc(N2CCOCC2)ccc1Nc1nc(Nc2ccc3c(c2)CCC(N2CCOCC2)CC3)ncc1Cl (stereo not drawn) [Example 865, 5-Chloro-N*4*-(2-methoxy-4-morpholin-4-yl-phenyl)-N*2*-(7-morpholin-4-yl-6,7,8,9-tetrahydro-5H-benzocyclohepten-2-yl)-pyrimidine-2,4-diamine]

IC50 [1, 5]: < 100 nM
IC50 [2, 6]: 100 to 1000 nM
Molecule: COC(CN1CCc2ccc(Nc3ncc(Cl)c(NC4C5C=CC(C5)C4C(N)=O)n3)cc2CC1)C(F)(F)F (mixture of isomers) [Example 338, (2-exo, 3-exo)-3-{5-Chloro-2-[3-((S)-3,3,3-trifluoro-2-methoxy-propyl)-2,3,4,5-tetrahydro-1H-benzo[d]azepin-7-ylamino]-pyrimidin-4-ylamino}-bicyclo[2.2.1]hept-5-ene-2-carboxylic acid amide]

IC50 [1, 3]: < 100 nM
IC50 [2, 4]: < 100 nM
Molecule: CCN1C(=O)CCC(C)(C)c2ccc(Nc3ncc(Cl)c(Nc4c(F)cccc4OCC#N)n3)cc21 [Example 1520, {2-[5-Chloro-2-(1-ethyl-5,5-dimethyl-2-oxo-2,3,4,5-tetrahydro-1H-1-benzazepin-8-ylamino)-pyrimidin-4-ylamino]-3-fluoro-phenoxy}-acetonitrile]

IC50 [1, 9]: < 100 nM
IC50 [2, 10]: 1000 to 10000 nM
Molecule: COc1cc2c(cc1Nc1ncc(Cl)c(Nc3ccccc3S(=O)(=O)N(C)C)n1)CCN(Cc1ncco1)CC2 [Example 1170, 2-[5-Chloro-2-(8-methoxy-3-oxazol-2-ylmethyl-2,3,4,5-tetrahydro-1H-benzo[d]azepin-7-ylamino)-pyrimidin-4-ylamino]-N,N-dimethyl-benzenesulfonamide]

IC50 [1, 9]: 100 to 1000 nM
IC50 [2, 10]: < 100 nM
Molecule: CNC(=O)c1cc(Br)cc(F)c1Nc1nc(Nc2ccc3c(c2)NC(=O)CCC3)ncc1Cl [Example 1414, 5-Bromo-2-[5-chloro-2-(2-oxo-2,3,4,5-tetrahydro-1H-benzo[b]azepin-8-ylamino)-pyrimidin-4-ylamino]-3-fluoro-N-methyl-benzamide]

IC50 [1, 3]: 100 to 1000 nM
IC50 [2, 4]: 100 to 1000 nM
Molecule: CNC(=O)c1sccc1Nc1nc(Nc2ccc3c(c2)-n2ccnc2CCC3)ncc1Cl [Example 1840, 3-[5-Chloro-2-(5,6-dihydro-4H-3,10b-diaza-benzo[e]azulen-9-ylamino)-pyrimidin-4-ylamino]-thiophene-2-carboxylic acid methylamide]

IC50 [1, 9]: < 100 nM
IC50 [2, 10]: > 10000 nM
Molecule: COc1cc2c(cc1Nc1ncc(Cl)c(Nc3ccccc3-n3cccn3)n1)CCC(N1CCOCC1)CC2 (stereo not drawn) [Example 1052, 5-Chloro-N*2*-(3-methoxy-7-morpholin-4-yl-6,7,8,9-tetrahydro-5H-benzocyclohepten-2-yl)-N*4*-(2-pyrazol-1-yl-phenyl)-pyrimidine-2,4-diamine]

IC50 [1, 9]: < 100 nM
IC50 [2, 10]: > 10000 nM
Molecule: COc1cc2c(cc1Nc1ncc(Cl)c(Nc3ccc(N(C)C)cc3OC)n1)CCN(Cc1nccn1C)CC2 [Example 1173, 5-Chloro-N*4*-(4-dimethylamino-2-methoxy-phenyl)-N*2*-[8-methoxy-3-(1-methyl-1H-imidazol-2-ylmethyl)-2,3,4,5-tetrahydro-1H-benzo[d]azepin-7-yl]-pyrimidine-2,4-diamine]

More lines, now with the values behind:

Molecule: CN1CCN(C)c2cccc(Nc3ncc(Cl)c(N[C@@H]4CCCC[C@H]4NS(C)(=O)=O)n3)c2C1=O [Example 214, N-{(1R,2R)-2-[5-Chloro-2-(1,4-dimethyl-5-oxo-2,3,4,5-tetrahydro-1H-benzo[e][1,4]diazepin-6-ylamino)-pyrimidin-4-ylamino]-cyclohexyl}-methanesulfonamide]
IC50 [1, 5]: 100 to 1000 nM
IC50 [2, 6]: 1000 to 10000 nM

Molecule: CCOC(=O)N1CC(=O)N(CC)c2cc(Nc3ncc(Cl)c(Nc4c(F)cccc4C(=O)NC)n3)ccc2C1 [Example 1875, 8-[5-Chloro-4-(2-fluoro-6-methylcarbamoyl-phenylamino)-pyrimidin-2-ylamino]-1-ethyl-2-oxo-1,2,3,5-tetrahydro-benzo[e][1,4]diazepine-4-carboxylic acid ethyl ester]
IC50 [1, 5]: 1000 to 10000 nM
IC50 [2, 6]: < 100 nM

Molecule: CN(C)CCN1CCCC(C)(C)c2ccc(Nc3ncc(Cl)c(N[C@H]4[C@@H](C(N)=O)[C@@H]5C=C[C@H]4C5)n3)cc21 [Example 1640, (1S,2S,3R,4R)-3-{5-Chloro-2-[1-(2-dimethylamino-ethyl)-5,5-dimethyl-2,3,4,5-tetrahydro-1H-benzo[b]azepin-8-ylamino]-pyrimidin-4-ylamino}-bicyclo[2.2.1]hept-5-ene-2-carboxylic acid amide]
IC50 [1, 3]: < 100 nM
IC50 [2, 4]: < 100 nM

Molecule: CCN1CCc2ccc(Nc3ncc(Cl)c(Nc4cccc(OCC#N)c4)n3)cc2CC1 [Example 927, {3-[5-Chloro-2-(3-ethyl-2,3,4,5-tetrahydro-1H-benzo[d]azepin-7-ylamino)-pyrimidin-4-ylamino]-phenoxy}-acetonitrile]
IC50 [1, 7]: < 100 nM
IC50 [2, 8]: 100 to 1000 nM

Molecule: COc1cc2c(cc1Nc1ncc(Cl)c(Nc3ccc(C(F)(F)F)cc3S(=O)(=O)N(C)C)n1)CCN(CC(=O)N(C)C)CC2 [Example 843, 2-{7-[5-Chloro-4-(2-dimethylsulfamoyl-4-trifluoromethyl-phenylamino)-pyrimidin-2-ylamino]-8-methoxy-1,2,4,5-tetrahydro-benzo[d]azepin-3-yl}-N,N-dimethyl-acetamide]
IC50 [1, 7]: < 100 nM
IC50 [2, 8]: > 10000 nM

Molecule: COc1ccc2c(c1Nc1ncc(Cl)c(N[C@@H]3CCCC[C@H]3NS(C)(=O)=O)n1)CCC(NCC(F)F)CC2 (single isomer, unassigned) [Example 1074]
IC50 [1, 9]: 100 to 1000 nM
IC50 [2, 10]: > 10000 nM

Molecule: C#CCNC(=O)c1cccc(F)c1Nc1nc(Nc2ccc3c(c2)CCN(C(=O)C2COCCO2)CC3)ncc1Cl (stereo not drawn) [Example 640, 2-{5-Chloro-2-[3-([1,4]dioxane-2-carbonyl)-2,3,4,5-tetrahydro-1H-benzo[d]azepin-7-ylamino]-pyrimidin-4-ylamino}-3-fluoro-N-prop-2-ynyl-benzamide]
IC50 [1, 7]: 100 to 1000 nM
IC50 [2, 8]: < 100 nM

Molecule: COCCN1CCc2cc(Nc3ncc(Cl)c(N[C@@H]4CCCC[C@H]4NS(C)(=O)=O)n3)c(OC)cc2CC1 [Example 111, N-((1R,2R)-2-{5-Chloro-2-[8-methoxy-3-(2-methoxy-ethyl)-2,3,4,5-tetrahydro-1H-benzo[d]azepin-7-ylamino]-pyrimidin-4-ylamino}-cyclohexyl)-methanesulfonamide]
IC50 [1, 5]: < 100 nM
IC50 [2, 6]: > 10000 nM

Molecule: C#CCN1CCc2ccc(Nc3ncc(Cl)c(N[C@H]4[C@@H](C(N)=O)[C@@H]5C=C[C@H]4C5)n3)cc2CC1 (relative stereo) [Example 323, (2-exo, 3-exo)-3-[5-Chloro-2-(3-prop-2-ynyl-2,3,4,5-tetrahydro-1H-benzo[d]azepin-7-ylamino)-pyrimidin-4-ylamino]-bicyclo[2.2.1]hept-5-ene-2-carboxylic acid amide]
IC50 [1, 5]: < 100 nM
IC50 [2, 6]: 100 to 1000 nM

Molecule: CN1C(=O)CCC(C)(C)c2cc(Nc3ncc(Cl)c(Nc4ccccc4-n4cccn4)n3)ccc21 [Example 1323, 7-[5-Chloro-4-(2-pyrazol-1-yl-phenylamino)-pyrimidin-2-ylamino]-1,5,5-trimethyl-1,3,4,5-tetrahydro-benzo[b]azepin-2-one]
IC50 [1, 9]: < 100 nM
IC50 [2, 10]: 100 to 1000 nM

Molecule: CCNC(=O)c1ccccc1Nc1nc(Nc2cc3c(cc2OC)CCN(CC(=O)NC)CC3)ncc1Cl [Example 1115, 2-[5-Chloro-2-(8-methoxy-3-methylcarbamoylmethyl-2,3,4,5-tetrahydro-1H-benzo[d]azepin-7-ylamino)-pyrimidin-4-ylamino]-N-ethyl-benzamide]
IC50 [1, 9]: < 100 nM
IC50 [2, 10]: 1000 to 10000 nM

Molecule: CN1C(=O)CCCc2cc(Nc3ncc(Cl)c(Nc4ccccc4-c4nccn4C)n3)ccc21 [Example 995, 7-{5-Chloro-4-[2-(1-methyl-1H-imidazol-2-yl)-phenylamino]-pyrimidin-2-ylamino}-1-methyl-1,3,4,5-tetrahydro-benzo[b]azepin-2-one]
IC50 [1, 7]: < 100 nM
IC50 [2, 8]: 100 to 1000 nM

Molecule: CNC(=O)c1cccc(Cl)c1Nc1nc(Nc2ccc3c(c2)C2CCC(C3)N2CCOC)ncc1Cl (stereo not drawn) [Example 91, 3-Chloro-2-{5-chloro-2-[12-(2-methoxy-ethyl)-12-aza-tricyclo[7.2.1.0*2,7*]dodeca-2(7),3,5-trien-4-ylamino]-pyrimidin-4-ylamino}-N-methyl-benzamide]
IC50 [1, 5]: 100 to 1000 nM
IC50 [2, 6]: < 100 nM

Molecule: 8-[5-Chloro-4-(2-pyrazol-1-yl-phenylamino)-pyrimidin-2-ylamino]-3-methyl-1,3,4,5-tetrahydro-benzo[d]azepin-2-one [Example 1819]
IC50 [1, 3]: 1000 to 10000 nM
IC50 [2, 4]: 1000 to 10000 nM
